Changes are numbered by the printed parent chain.
What was measured:
[1] = target: T1, p38α wt (Mus musculus, UniProt P47811); assay: Kinase activity assay; format: biochemical
[2] = target: T2, p38α T106Q (Mus musculus, UniProt P47811, T106Q); assay: Kinase activity assay; format: biochemical
[3] = target: Erk2 Q103A/C164L (Rattus norvegicus, UniProt P63086, C164L/Q103A); settings: read-out: Km(ATP); activated Erk2 Q103A/C164L
[4] = target: Jnk3 M146I (Homo sapiens, UniProt P53779, M146I); assay: Kinetics: activity assay at varied ATP concentrations; format: biochemical; settings: read-out: Km(ATP); activated Jnk3 M146I
Jnk3 M146I, sequence (P53779 whole entry M146I): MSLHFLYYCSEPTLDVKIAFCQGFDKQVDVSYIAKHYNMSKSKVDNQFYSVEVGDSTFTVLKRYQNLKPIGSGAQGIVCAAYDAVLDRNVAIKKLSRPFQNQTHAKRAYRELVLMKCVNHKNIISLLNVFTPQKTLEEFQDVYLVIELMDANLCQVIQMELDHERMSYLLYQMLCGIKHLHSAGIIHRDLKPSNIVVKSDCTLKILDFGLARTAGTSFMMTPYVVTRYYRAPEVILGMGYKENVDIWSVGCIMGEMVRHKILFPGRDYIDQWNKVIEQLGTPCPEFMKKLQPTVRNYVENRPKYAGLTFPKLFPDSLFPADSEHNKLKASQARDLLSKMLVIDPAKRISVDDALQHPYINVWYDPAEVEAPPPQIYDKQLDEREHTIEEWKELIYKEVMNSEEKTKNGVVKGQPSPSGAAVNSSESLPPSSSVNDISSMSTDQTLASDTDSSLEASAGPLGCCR

[5] = target: T3, p38δ wt (Mus musculus, UniProt Q9Z1B7); assay: as above; format: biochemical; settings: read-out: Km(ATP); activated p38δ wt
T3 sequence (Q9Z1B7 1-366): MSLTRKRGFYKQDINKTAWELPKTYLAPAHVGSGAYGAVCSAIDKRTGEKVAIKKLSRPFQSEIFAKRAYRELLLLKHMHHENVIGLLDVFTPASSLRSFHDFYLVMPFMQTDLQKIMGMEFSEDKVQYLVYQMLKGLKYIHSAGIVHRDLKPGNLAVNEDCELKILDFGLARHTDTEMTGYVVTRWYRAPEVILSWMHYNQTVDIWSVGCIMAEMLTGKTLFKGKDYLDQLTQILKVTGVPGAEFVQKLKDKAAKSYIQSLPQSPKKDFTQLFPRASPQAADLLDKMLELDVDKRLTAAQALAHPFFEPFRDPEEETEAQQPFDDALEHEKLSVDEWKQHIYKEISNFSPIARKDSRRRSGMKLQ

[6] = target: Erk2 wt (Rattus norvegicus, UniProt P63086); settings: read-out: Km(ATP); activated Erk2 wt
[7] = target: T4, p38δ M107T (Mus musculus, UniProt Q9Z1B7, M107T); assay: Kinetics: activity assay at varied ATP concentrations; format: biochemical; settings: read-out: Km(ATP); activated p38δ M107T
T4 sequence (Q9Z1B7 1-366 M107T): T3 sequence (Q9Z1B7 1-366) with M107T

[8] = target: Erk2 Q103T/C164L (Rattus norvegicus, UniProt P63086, C164L/Q103T); settings: read-out: Km(ATP); activated Erk2 Q103T/C164L
[9] = target: Jnk3 wt (Homo sapiens, UniProt P53779); assay: Kinetics: activity assay at varied ATP concentrations; format: biochemical; settings: read-out: Km(ATP); activated Jnk3 wt
Jnk3 wt, sequence (P53779 whole entry): as the sequence (P53779 whole entry M146I) above, with I146M counted along it

[10] = target: Erk2 Q103T (Rattus norvegicus, UniProt P63086, Q103T); settings: read-out: Km(ATP); activated Erk2 Q103T
[11] = target: T2, p38α T106Q; assay: Kinetics: activity assay at varied ATP concentrations; format: biochemical; settings: read-out: Km(ATP); activated p38α T106Q; rate of reaction maintained linearity as high as 1000 μM ATP
[12] = target: T1, p38α wt; assay: as above; format: biochemical; settings: read-out: Km(ATP); activated p38α wt

T1 sequence (P47811 whole entry): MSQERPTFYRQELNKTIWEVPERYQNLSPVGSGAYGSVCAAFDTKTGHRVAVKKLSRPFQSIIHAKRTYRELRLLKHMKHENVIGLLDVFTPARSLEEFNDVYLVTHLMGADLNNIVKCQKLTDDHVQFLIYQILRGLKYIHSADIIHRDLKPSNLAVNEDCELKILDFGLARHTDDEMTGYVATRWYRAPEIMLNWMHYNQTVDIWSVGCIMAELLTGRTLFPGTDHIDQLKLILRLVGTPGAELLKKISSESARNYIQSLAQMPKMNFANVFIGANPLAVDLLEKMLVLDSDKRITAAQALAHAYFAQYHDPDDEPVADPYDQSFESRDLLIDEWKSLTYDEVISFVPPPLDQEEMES
T2 sequence (P47811 whole entry T106Q): as the sequence (P47811 whole entry) above, with T106Q counted along it

| Ki [1] [nM] | Ki [2] [nM] | Km [3] [µM] | Km [4] [µM] | Km [5] [µM] | Km [6] [µM] | Km [7] [µM] | Km [8] [µM] | Km [9] [µM] | Km [10] [µM] | Km [11] [µM] | Km [12] [µM] | SMILES |
| --- | --- | --- | --- | --- | --- | --- | --- | --- | --- | --- | --- | --- |
| 8.1 ± 0.2 | 3700 ± 400 |  |  |  |  |  |  |  |  |  |  | Cc1ccc(C(=O)Nc2ccc(CN3CCN(C)CC3)c(C(F)(F)F)c2)cc1C#Cc1cnc2cccnn12 [L1, Iclusig] |
|  |  | 137 ± 6 | 66 ± 3 | 91 ± 6 | 120 ± 10 | 380 ± 40 | 180 ± 20 | 8.3 ± 0.6 | 83 ± 5 | > 1000 | 229 ± 16 | Nc1ncnc2c1ncn2[C@@H]1O[C@H](COP(=O)(O)OP(=O)(O)OP(=O)(O)O)[C@@H](O)[C@H]1O [ATP] |

— publication PMC3742363 (Chemistry & biology, 2013)
